{"source": "BindingDB's records for doi:10.1021/jm00087a006", "about": "(University of Michigan, 1992)", "key": {"[1]": {"experiment": "Compound was tested for the inhibition of [3H]- [D-Pen2, D-Pen5]-enkephalin (DPDPE) binding to Opioid receptor delta 1 in guinea pig brain homogenates"}, "[2]": {"experiment": "Compound was tested for the inhibition of [3H]- [D-Pen2, D-Pen5]-enkephalin (DPDPE) binding to Opioid receptor delta 1 in guinea pig brain homogenates", "remark": "listed apart in the source"}, "[3]": {"experiment": "Compound was tested for the inhibition of [3H]- [D-Pen2, D-Pen5]-enkephalin (DPDPE) binding to opioid receptor delta in guinea pig brain homogenates"}}, "note": "Positions of bridges follow the written chain, without caps; N, C: chain ends. Non-standard residues stand in square brackets, D forms with d. Residues, ends and D or L forms follow the SMILES beside them. Phe(4-NO2) = N[C@@H](Cc1ccc([N+](=O)[O-])cc1)C(=O)O; Phe(4-tBu) = CC(C)(C)c1ccc(C[C@H](N)C(=O)O)cc1; Phe(4-Cl) = N[C@@H](Cc1ccc(Cl)cc1)C(=O)O; Phe(3-F) = N[C@@H](Cc1cccc(F)c1)C(=O)O; Phe(4-F) = N[C@@H](Cc1ccc(F)cc1)C(=O)O; Phe(4-Me) = Cc1ccc(C[C@H](N)C(=O)O)cc1; Phe(2-F) = N[C@@H](Cc1ccccc1F)C(=O)O; mTyr = N[C@@H](Cc1cccc(O)c1)C(=O)O; Pen = CC(C)(S)[C@H](N)C(=O)O"}
{"molecule": "CC1(C)SSC[C@H](NC(=O)[C@@H](N)Cc2ccc(O)cc2)C(=O)N[C@@H](Cc2cccc(F)c2)C(=O)N[C@@H]1C(=O)O", "note": "(H-YC[Phe(3-F)][Pen]-OH; disulfide 2-4)", "values": [{"measurement": "Ki", "setting": "[1]", "value": 2.9, "unit": "nM"}]}
{"molecule": "CC1(C)SSC[C@H](NC(=O)[C@@H](N)Cc2ccc(O)cc2)C(=O)N[C@@H](Cc2ccc(Cl)cc2)C(=O)N[C@@H]1C(=O)O", "note": "(H-YC[Phe(4-Cl)][Pen]-OH; disulfide 2-4)", "values": [{"measurement": "Ki", "setting": "[1]", "value": 0.98, "unit": "nM"}]}
{"molecule": "Cc1ccc(C[C@@H]2NC(=O)[C@@H](NC(=O)[C@@H](N)Cc3ccc(O)cc3)CSSC(C)(C)[C@@H](C(=O)O)NC2=O)cc1", "note": "(H-YC[Phe(4-Me)][Pen]-OH; disulfide 2-4)", "values": [{"measurement": "Ki", "setting": "[1]", "value": 5.4, "unit": "nM"}]}
{"molecule": "CC1(C)SSC[C@H](NC(=O)[C@@H](N)Cc2ccc(O)cc2)C(=O)N[C@@H](Cc2ccc(O)cc2)C(=O)N[C@@H]1C(=O)O", "note": "(H-YCY[Pen]-OH; disulfide 2-4)", "values": [{"measurement": "Ki", "setting": "[2]", "value": 26, "unit": "nM"}]}
{"molecule": "CC1(C)SSC[C@H](NC(=O)[C@@H](N)Cc2ccc(O)cc2)C(=O)N[C@@H](Cc2ccc([N+](=O)[O-])cc2)C(=O)N[C@@H]1C(=O)O", "note": "(H-YC[Phe(4-NO2)][Pen]-OH; disulfide 2-4)", "values": [{"measurement": "Ki", "setting": "[2]", "value": 1.7, "unit": "nM"}]}
{"molecule": "CC(C)(C)c1ccc(C[C@@H]2NC(=O)[C@@H](NC(=O)[C@@H](N)Cc3ccc(O)cc3)CSSC(C)(C)[C@@H](C(=O)O)NC2=O)cc1", "note": "(H-YC[Phe(4-tBu)][Pen]-OH; disulfide 2-4)", "values": [{"measurement": "Ki", "setting": "[3]", "value": 37, "unit": "nM"}, {"measurement": "Ki", "setting": "[2]", "value": 648, "unit": "nM"}]}
{"molecule": "CC1(C)SSC[C@H](NC(=O)[C@@H](N)Cc2ccc(O)cc2)C(=O)N[C@@H](Cc2ccccc2F)C(=O)N[C@@H]1C(=O)O", "note": "(H-YC[Phe(2-F)][Pen]-OH; disulfide 2-4)", "values": [{"measurement": "Ki", "setting": "[1]", "value": 3.3, "unit": "nM"}]}
{"molecule": "CC1(C)SSC[C@H](NC(=O)[C@@H](N)Cc2ccc(O)cc2)C(=O)N[C@@H](Cc2cccc(O)c2)C(=O)N[C@@H]1C(=O)O", "note": "(H-YC[mTyr][Pen]-OH; disulfide 2-4)", "values": [{"measurement": "Ki", "setting": "[3]", "value": 9.3, "unit": "nM"}, {"measurement": "Ki", "setting": "[2]", "value": 148, "unit": "nM"}]}
{"molecule": "CC1(C)SSC[C@H](NC(=O)[C@@H](N)Cc2ccc(O)cc2)C(=O)N[C@@H](Cc2ccc(F)cc2)C(=O)N[C@@H]1C(=O)O", "note": "(H-YC[Phe(4-F)][Pen]-OH; disulfide 2-4)", "values": [{"measurement": "Ki", "setting": "[2]", "value": 1.1, "unit": "nM"}]}
